Data taken from article PMC7076710, “Synthesis, Identification, and Structure–Activity Relationship Analysis of GATA4 and NKX2-5 Protein–Protein Interaction Modulators” (Journal of Medicinal Chemistry, 2019).

Assays:
COS-1 cells [1] = assay: LDH assay (necrosis); type: cell-based
COS-1 cells [2] = assay: MTT assay (cell viability); type: cell-based; settings: for MTT.1µM / MTT.3µM / MTT.10µM / MTT.30µM: cell viability; for toxicity class in the MTT assay: 24-h exposure, classified at 10 μM

Compound	LDH.1µM (COS-1 cells [1]; COS-1 cells)	LDH.3µM (COS-1 cells [1]; COS-1 cells)	LDH.10µM (COS-1 cells [1]; COS-1 cells)	LDH.30µM (COS-1 cells [1]; COS-1 cells)	MTT.1µM (COS-1 cells [2]; COS-1 cells) [%]	MTT.3µM (COS-1 cells [2]; COS-1 cells) [%]	MTT.10µM (COS-1 cells [2]; COS-1 cells) [%]	MTT.30µM (COS-1 cells [2]; COS-1 cells) [%]	toxicity class in the MTT assay (COS-1 cells [2])	LDH.1µM (COS-1 cells [1])	LDH.3µM (COS-1 cells [1])	LDH.10µM (COS-1 cells [1])	LDH.30µM (COS-1 cells [1])	MTT.1µM (COS-1 cells [2])	MTT.3µM (COS-1 cells [2])	MTT.10µM (COS-1 cells [2])	MTT.30µM (COS-1 cells [2])
CCN(CC)c1ccc(NC(=O)c2c(-c3ccccc3)noc2C)cc1 [Compound 1, N-[4-(Diethylamino)phenyl]-5-methyl-3-phenylisoxazole-4-carboxamide]	1.16	0.89	-0.76	-0.02	98.55	96.23	89.96	91.57	toxic (Toxic compounds (cell viability <90%))								
Cc1onc(-c2ccccc2)c1C(=O)N(C1=NC(C)CS1)c1ccc(Cl)cc1 (centres unmarked) [Compound 2]	1.6	1.4	1.08	1.02		105.13	107.32	87.3	nontoxic (nontoxic compounds (cell viability >90%))								
Cc1onc(-c2ccccc2)c1COc1ccc(C(=O)OCCC#N)cc1 [Compound 35a, 2-Cyanoethyl 4-[(5-Methyl-3-phenylisoxazol-4-yl)methoxy]benzoate]									most toxic	0.51	1.44	1.72	1	83.35	72.67	66.11	61.55
CCN(CC)c1ccc(NC(=O)c2cnsc2)cc1 [Compound 47s]									nontoxic (nontoxic compounds (cell viability >90%))	3.18	0.65	1.08	0.91	103.66	95.56	92.49	105.44
CCC(=O)N(Cc1ccc(N(CC)CC)cc1)c1c(-c2ccccc2)noc1C [Compound 58]									most toxic	0.36	-0.8	-1.03	1.47	99.35	82.12	76.17	63.57
COc1ccc(-c2cc(NC(=O)c3ccc(C(C)(C)C)cc3)n[nH]2)cc1 [Compound 72]									nontoxic (nontoxic compounds (cell viability >90%))	2.2	0.82	0.22	-0.27	110.93	101.15	102.37	107.89
N-[4-(Diethylamino)phenyl]-3-methyl-5-(4-methyl-1,2,3-thiadiazol-5-yl)isoxazole-4-carboxamide [Compound 47c]									high toxicity	-0.01	-0.17	0.1	-0.11	88.76	85.01	81.61	78.65
